In patent publication US20260092071A1, “COMPOUNDS AND COMPOSITIONS AS SMARCA2/4 DEGRADERS AND USES THEREOF” (REGENTS OF THE UNIVERSITY OF MICHIGAN, priority 2022, published 2026):
Read-outs that look alike come from different tables or passages of the source.

What was measured:
SMARCA2 = SMARCA2 (Homo sapiens, UniProt P51531); experiment: HiBit assay in engineered HT1080 CRISPR knock-in cell, 6 hrs (B series), SMARCA2; format: cell-based; details: 6 hrs incubation; for DC50: HT1080 CRISPR knock-in cells, read-out: SMARC A2 HT1080 HiBit DC50; for Dmax: HT-1080, HT1080 CRISPR knock-in cells, read-out: SMARC A2 HT1080 HiBit Dmax (%)
In short: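 Using a 6 hr treatment window at 37° C and 5% CO2, tagged HT1080 knock-in cells were exposed to test compounds with DMSO vehicle held at 0.1%. Signal came from lytic LgBiT/substrate reagent added after incubation, with control wells lacking LgBiT, and was read as luminescence.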

SMARCA4 = SMARCA4 (Homo sapiens, UniProt P51532); experiment: HiBit assay in engineered HT1080 CRISPR knock-in cell, 6 hrs (B series), SMARCA4; format: cell-based; details: for DC50: HT1080 CRISPR knock-in cells, read-out: SMARC A4 HT1080 HiBit DC50
In short: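 Compounds were dispensed first, then HT1080 knock-in cells added and incubated for 6 hrs at 37° C. Next, detection reagent containing LgBiT and lytic substrate was added. Plates were shaken 10 min and centrifuged, and luminescence was measured.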

[1] = HT-1080, HT1080 CRISPR knock-in cells, 6 hrs incubation, read-out: SMARC A4 HT1080 HiBit Dmax(%)

SMARCA4, sequence (P51532 whole entry): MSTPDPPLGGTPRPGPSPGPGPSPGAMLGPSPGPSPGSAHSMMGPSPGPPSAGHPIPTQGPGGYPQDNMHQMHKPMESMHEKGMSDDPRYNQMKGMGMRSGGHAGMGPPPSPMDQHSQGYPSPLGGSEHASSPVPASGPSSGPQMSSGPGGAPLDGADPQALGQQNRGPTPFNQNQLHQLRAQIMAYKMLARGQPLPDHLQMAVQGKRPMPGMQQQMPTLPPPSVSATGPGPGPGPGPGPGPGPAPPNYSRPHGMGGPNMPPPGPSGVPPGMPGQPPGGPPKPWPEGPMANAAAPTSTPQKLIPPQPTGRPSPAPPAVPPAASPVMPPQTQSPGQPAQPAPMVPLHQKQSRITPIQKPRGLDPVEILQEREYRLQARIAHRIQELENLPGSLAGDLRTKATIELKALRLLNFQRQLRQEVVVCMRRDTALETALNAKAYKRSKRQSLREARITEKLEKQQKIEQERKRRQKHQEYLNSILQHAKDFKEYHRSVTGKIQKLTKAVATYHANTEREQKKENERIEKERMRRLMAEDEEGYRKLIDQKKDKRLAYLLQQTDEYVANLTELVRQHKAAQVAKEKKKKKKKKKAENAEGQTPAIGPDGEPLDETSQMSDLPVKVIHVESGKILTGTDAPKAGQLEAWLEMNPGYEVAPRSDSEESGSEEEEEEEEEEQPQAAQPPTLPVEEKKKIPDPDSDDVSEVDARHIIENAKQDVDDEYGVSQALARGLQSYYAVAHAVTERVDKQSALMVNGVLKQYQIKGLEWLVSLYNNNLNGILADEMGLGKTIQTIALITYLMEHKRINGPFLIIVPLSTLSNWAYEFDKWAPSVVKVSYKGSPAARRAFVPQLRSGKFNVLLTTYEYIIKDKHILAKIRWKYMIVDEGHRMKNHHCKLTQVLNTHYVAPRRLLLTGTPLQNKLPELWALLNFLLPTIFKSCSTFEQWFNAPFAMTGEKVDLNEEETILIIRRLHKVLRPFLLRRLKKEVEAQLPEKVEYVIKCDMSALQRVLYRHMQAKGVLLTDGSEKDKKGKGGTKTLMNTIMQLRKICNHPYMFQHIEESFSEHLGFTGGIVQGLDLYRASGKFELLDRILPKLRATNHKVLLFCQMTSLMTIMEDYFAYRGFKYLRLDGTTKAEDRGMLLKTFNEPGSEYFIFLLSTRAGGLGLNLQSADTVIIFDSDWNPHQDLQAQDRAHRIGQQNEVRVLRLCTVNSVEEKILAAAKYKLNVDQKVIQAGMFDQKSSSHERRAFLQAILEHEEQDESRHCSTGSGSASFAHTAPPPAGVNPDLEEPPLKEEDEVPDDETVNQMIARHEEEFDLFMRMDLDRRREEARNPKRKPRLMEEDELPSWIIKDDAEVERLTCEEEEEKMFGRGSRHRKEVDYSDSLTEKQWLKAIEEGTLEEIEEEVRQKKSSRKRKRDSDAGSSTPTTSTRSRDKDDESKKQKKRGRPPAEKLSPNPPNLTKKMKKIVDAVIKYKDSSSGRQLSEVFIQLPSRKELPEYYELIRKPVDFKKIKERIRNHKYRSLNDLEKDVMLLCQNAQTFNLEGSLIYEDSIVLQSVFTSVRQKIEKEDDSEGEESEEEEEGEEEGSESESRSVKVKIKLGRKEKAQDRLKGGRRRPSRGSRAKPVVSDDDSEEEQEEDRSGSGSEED
SMARCA2, sequence (P51531 whole entry): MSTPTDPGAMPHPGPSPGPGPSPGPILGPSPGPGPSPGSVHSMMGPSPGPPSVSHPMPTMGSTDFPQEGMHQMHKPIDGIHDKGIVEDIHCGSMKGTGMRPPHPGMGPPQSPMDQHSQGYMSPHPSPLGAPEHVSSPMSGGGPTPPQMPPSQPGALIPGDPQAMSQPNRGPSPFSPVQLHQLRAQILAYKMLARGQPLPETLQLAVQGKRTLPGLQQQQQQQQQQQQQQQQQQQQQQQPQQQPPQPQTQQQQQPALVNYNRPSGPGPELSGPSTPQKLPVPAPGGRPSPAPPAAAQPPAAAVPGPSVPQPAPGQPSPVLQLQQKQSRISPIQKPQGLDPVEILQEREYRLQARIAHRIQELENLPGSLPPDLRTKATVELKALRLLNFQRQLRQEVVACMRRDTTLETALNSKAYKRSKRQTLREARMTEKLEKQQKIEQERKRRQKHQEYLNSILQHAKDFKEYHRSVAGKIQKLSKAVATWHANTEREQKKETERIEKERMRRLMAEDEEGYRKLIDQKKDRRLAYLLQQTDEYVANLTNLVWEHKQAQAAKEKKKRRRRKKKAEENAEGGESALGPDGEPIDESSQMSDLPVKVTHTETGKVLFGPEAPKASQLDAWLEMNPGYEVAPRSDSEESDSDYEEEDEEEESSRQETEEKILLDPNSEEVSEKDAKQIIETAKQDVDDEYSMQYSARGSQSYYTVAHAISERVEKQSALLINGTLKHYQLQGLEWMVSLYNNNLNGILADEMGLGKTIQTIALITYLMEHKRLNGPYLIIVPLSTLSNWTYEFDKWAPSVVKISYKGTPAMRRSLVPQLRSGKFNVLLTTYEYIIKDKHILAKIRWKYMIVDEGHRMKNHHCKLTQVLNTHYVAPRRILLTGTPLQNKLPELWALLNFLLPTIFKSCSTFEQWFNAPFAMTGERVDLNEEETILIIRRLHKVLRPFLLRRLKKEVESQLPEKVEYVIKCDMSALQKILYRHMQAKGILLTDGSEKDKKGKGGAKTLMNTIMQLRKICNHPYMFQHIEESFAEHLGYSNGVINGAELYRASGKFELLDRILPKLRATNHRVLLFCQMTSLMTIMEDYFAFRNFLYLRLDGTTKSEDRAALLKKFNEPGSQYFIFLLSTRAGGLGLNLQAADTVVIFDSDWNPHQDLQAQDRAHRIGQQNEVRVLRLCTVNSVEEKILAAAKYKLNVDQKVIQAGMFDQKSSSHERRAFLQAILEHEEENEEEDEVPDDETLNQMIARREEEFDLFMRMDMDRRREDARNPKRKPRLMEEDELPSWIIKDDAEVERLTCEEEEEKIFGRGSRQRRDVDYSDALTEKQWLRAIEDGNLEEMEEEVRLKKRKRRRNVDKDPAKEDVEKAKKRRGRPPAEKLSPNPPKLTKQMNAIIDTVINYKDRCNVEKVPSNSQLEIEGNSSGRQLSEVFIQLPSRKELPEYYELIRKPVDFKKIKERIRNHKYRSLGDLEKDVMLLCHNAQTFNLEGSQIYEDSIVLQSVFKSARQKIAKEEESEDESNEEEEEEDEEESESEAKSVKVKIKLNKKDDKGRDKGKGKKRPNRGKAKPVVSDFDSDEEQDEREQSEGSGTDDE

DC50 (SMARCA2) [nM] | Dmax (SMARCA2) [%] | DC50 (SMARCA4; 6 hrs incubation) [nM] | Dmax (SMARCA4; [1]) [%] | Dmax (SMARCA4; HT-1080, read-out: SMARC A4 HT1080 HiBit Dmax(%), HT1080 CRISPR knock-in cells, 6 hrs incubation) [%] | Compound
< 100 | > 90 | 100 to 500 | 50 to 69 |  | Cc1ncsc1-c1ccc([C@H](C)NC(=O)[C@@H]2C[C@@H](O)CN2C(=O)[C@@H](NC(=O)C23CCC(CN4CCC(c5ccc6c(c5)-n5c(nc(=O)c7c(Cl)cccc75)C6(C)C)CC4)(CC2)C3)C(C)(C)C)cc1 [Compound B77, (2S,4R)-1-((S)-2-(4-((4-(4-chloro-7,7-dimethyl-5-oxo-5,7-dihydroindolo[1,2-a]quinazolin-10-yl)piperidin-1-yl)methyl)bicyclo[2.2.1]heptane-1-carboxamido)-3,3-dimethylbutanoyl)-4-hydroxy-N-((S)-1-(4-(4-methylthiazol-5-yl)phenyl)ethyl)pyrrolidine-2-carboxamide]
< 100 | > 90 | < 100 |  | > 90 | Cc1ncsc1-c1ccc([C@H](C)NC(=O)[C@@H]2C[C@@H](O)CN2C(=O)[C@H](C(C)C)n2cc([C@H]3CC[C@H](CN4CCC(c5ccc6c(c5)C(C)(C)c5nc(=O)c7c(Cl)cccc7n5-6)CC4)CC3)nn2)cc1 [Compound B78, (2S,4R)-1-((S)-2-(4-((1r,4S)-4-((4-(4-chloro-7,7-dimethyl-5-oxo-5,7-dihydroindolo[1,2-a]quinazolin-9-yl)piperidin-1-yl)methyl)cyclohexyl)-1H-1,2,3-triazol-1-yl)-3-methylbutanoyl)-4-hydroxy-N—((S)-1-(4-(4-methylthiazol-5-yl)phenyl)ethyl)pyrrolidine-2-carboxamide]
< 100 | 70 to 90 | 100 to 500 | < 50 |  | C=C[C@H](NC(=O)[C@@H]1C[C@@H](O)CN1C(=O)[C@@H](NC(=O)[C@H]1CC[C@H](CN2CCC(c3ccc4c(c3)C(C)(C)c3nc(=O)c5c(Cl)cccc5n3-4)CC2)CC1)C(C)(C)C)c1ccc(-c2scnc2C)cc1 [Compound B79, (2S,4R)-1-((S)-2-((11,4S)-4-((4-(4-chloro-7,7-dimethyl-5-oxo-5,7-dihydroindolo[1,2-a]quinazolin-9-yl)piperidin-1-yl)methyl)cyclohexane-1-carboxamido)-3,3-dimethylbutanoyl)-4-hydroxy-N-((S)-1-(4-(4-methylthiazol-5-yl)phenyl)allyl)pyrrolidine-2-carboxamide]
< 100 | > 90 | < 100 | > 90 |  | Cc1ncsc1-c1ccc(CNC(=O)[C@@H]2C[C@@H](O)CN2C(=O)[C@@H](NC(=O)C2(F)CC2)C(C)(C)C)c(OCC2CCC(N3CCC(c4ccc5c(c4)-n4c(nc(=O)c6c(Cl)cccc64)C5(C)C)CC3)CC2)c1 (stereo partly drawn) [Compound B80, (2S,4R)-N-(2-((4-(4-(4-chloro-7,7-dimethyl-5-oxo-5,7-dihydroindolo[1,2-a]quinazolin-10-yl)piperidin-1-yl)cyclohexyl)methoxy)-4-(4-methylthiazol-5-yl)benzyl)-1-((S)-2-(1-fluorocyclopropane-1-carboxamido)-3,3-dimethylbutanoyl)-4-hydroxypyrrolidine-2-carboxamide]
< 100 | > 90 | < 100 | < 50 |  | Cc1ncsc1-c1ccc([C@H](C)NC(=O)[C@@H]2C[C@@H](O)CN2C(=O)[C@@H](c2cc(OC3CCC(N4CCC(c5ccc6c(c5)-n5c(nc(=O)c7c(Cl)cccc75)C6(C)C)CC4)CC3)no2)C(C)C)cc1 (stereo partly drawn) [Compound B81, (2S,4R)-1-((R)-2-(3-((4-(4-(4-chloro-7,7-dimethyl-5-oxo-5,7-dihydroindolo[1,2-a]quinazolin-10-yl)piperidin-1-yl)cyclohexyl)oxy)isoxazol-5-yl)-3-methylbutanoyl)-4-hydroxy-N-((S)-1-(4-(4-methylthiazol-5-yl)phenyl)ethyl)pyrrolidine-2-carboxamide]
< 100 | 70 to 90 | < 100 | 50 to 69 |  | Cc1ncsc1-c1ccc([C@H](C)NC(=O)[C@@H]2C[C@@H](O)CN2C(=O)[C@@H](c2cc(OCC3(CN4CCC(c5ccc6c(c5)C(C)(C)c5nc(=O)c7c(Cl)cccc7n5-6)CC4)CC3)no2)C(C)C)cc1 [Compound B82, (2S,4R)-1-((R)-2-(3-((1-((4-(4-chloro-7,7-dimethyl-5-oxo-5,7-dihydroindolo[1,2-a]quinazolin-9-yl)piperidin-1-yl)methyl)cyclopropyl)methoxy)isoxazol-5-yl)-3-methylbutanoyl)-4-hydroxy-N-((S)-1-(4-(4-methylthiazol-5-yl)phenyl)ethyl)pyrrolidine-2-carboxamide]
100 to 500 | < 50 | > 1000 | < 50 |  | Cc1ncsc1-c1ccc([C@H](C)NC(=O)[C@@H]2C[C@@H](O)CN2C(=O)[C@@H](NC(=O)CCCn2cc(-c3ccc4c(c3)-n3c(nc(=O)c5c(Cl)cccc53)C4(C)C)cn2)C(C)(C)C)cc1 [Compound B83, (2S,4R)-1-((S)-2-(4-(4-(4-chloro-7,7-dimethyl-5-oxo-5,7-dihydroindolo[1,2-a]quinazolin-10-yl)-1H-pyrazol-1-yl)butanamido)-3,3-dimethylbutanoyl)-4-hydroxy-N-((S)-1-(4-(4-methylthiazol-5-yl)phenyl)ethyl)pyrrolidine-2-carboxamide]
< 100 | > 90 | < 100 | > 90 |  | Cc1cc(C(C(=O)N2C[C@H](O)C[C@H]2C(=O)N[C@@H](CCCCCN2CCC(c3ccc4c(c3)-n3c(nc(=O)c5c(Cl)cccc53)C4(C)C)CC2)c2ccc(-c3scnc3C)cc2)C(C)C)on1 (stereo partly drawn) [Compound B84, (2S,4R)-N-((S)-6-(4-(4-chloro-7,7-dimethyl-5-oxo-5,7-dihydroindolo[1,2-a]quinazolin-10-yl)piperidin-1-yl)-1-(4-(4-methylthiazol-5-yl)phenyl)hexyl)-4-hydroxy-1-(3-methyl-2-(3-methylisoxazol-5-yl)butanoyl)pyrrolidine-2-carboxamide]
< 100 | > 90 | < 100 | > 90 |  | Cc1cc(C(C(=O)N2C[C@H](O)C[C@H]2C(=O)N[C@@H](CCCCCN2CCC(c3ccc4c(c3)C(C)(C)c3nc(=O)c5c(Cl)cccc5n3-4)CC2)c2ccc(-c3scnc3C)cc2)C(C)C)on1 (stereo partly drawn) [Compound B85, (2S,4R)-N-((S)-6-(4-(4-chloro-7,7-dimethyl-5-oxo-5,7-dihydroindolo[1,2-a]quinazolin-9-yl)piperidin-1-yl)-1-(4-(4-methylthiazol-5-yl)phenyl)hexyl)-4-hydroxy-1-(3-methyl-2-(3-methylisoxazol-5-yl)butanoyl)pyrrolidine-2-carboxamide]
< 100 | > 90 | < 100 | 70 to 90 |  | Cc1ncsc1-c1ccc([C@H](C)NC(=O)[C@@H]2C[C@@H](O)CN2C(=O)[C@@H](n2cc(C3CC4(C3)CC(N3CCC(c5ccc6c(c5)-n5c(nc(=O)c7c(Cl)cccc75)C6(C)C)CC3)C4)nn2)C(C)(C)C)cc1 (stereo partly drawn) [Compound B86, (2S,4R)-1-((S)-2-(4-(6-(4-(4-chloro-7,7-dimethyl-5-oxo-5,7-dihydroindolo[1,2-a]quinazolin-10-yl)piperidin-1-yl)spiro[3.3]heptan-2-yl)-1H-1,2,3-triazol-1-yl)-3,3-dimethylbutanoyl)-4-hydroxy-N—((S)-1-(4-(4-methylthiazol-5-yl)phenyl)ethyl)pyrrolidine-2-carboxamide]
100 to 500 | 50 to 69 | > 1000 | < 50 |  | Cc1ncsc1-c1ccc([C@H](C)NC(=O)[C@@H]2C[C@@H](O)CN2C(=O)[C@@H](NC(=O)CCCCn2cc(-c3ccc4c(c3)C(C)(C)c3nc(=O)c5c(Cl)cccc5n3-4)cn2)C(C)(C)C)cc1 [Compound B87, (2S,4R)-1-((S)-2-(5-(4-(4-chloro-7,7-dimethyl-5-oxo-5,7-dihydroindolo[1,2-a]quinazolin-9-yl)-1H-pyrazol-1-yl)pentanamido)-3,3-dimethylbutanoyl)-4-hydroxy-N-((S)-1-(4-(4-methylthiazol-5-yl)phenyl)ethyl)pyrrolidine-2-carboxamide]
> 1000 | < 50 | > 1000 | < 50 |  | C[C@H](NC(=O)[C@@H]1C[C@@H](O)CN1C(=O)[C@@H](NC(=O)[C@H]1CC[C@H](CN2CCC(c3ccc4c(c3)C(C)(C)c3nc(=O)c5c(Cl)cccc5n3-4)CC2)CC1)C(C)(C)C)c1ccc(-c2ncnn2C)cc1 [Compound B88, (2S,4R)-1-((S)-2-((11,4S)-4-((4-(4-chloro-7,7-dimethyl-5-oxo-5,7-dihydroindolo[1,2-a]quinazolin-9-yl)piperidin-1-yl)methyl)cyclohexane-1-carboxamido)-3,3-dimethylbutanoyl)-4-hydroxy-N-((S)-1-(4-(1-methyl-1H-1,2,4-triazol-5-yl)phenyl)ethyl)pyrrolidine-2-carboxamide]
< 100 | > 90 | 100 to 500 | > 90 |  | Cc1ncsc1-c1ccc([C@H](C)NC(=O)[C@@H]2C[C@@H](O)CN2C(=O)[C@H](c2cc(N3CCC(C(=O)N4CCC(c5ccc6c(c5)C(C)(C)c5nc(=O)c7c(Cl)cccc7n5-6)CC4)CC3)no2)C(C)C)cc1 [Compound B89, (2S,4R)-1-(2-(3-(4-(4-(4-chloro-7,7-dimethyl-5-oxo-5,7-dihydroindolo[1,2-a]quinazolin-9-yl)piperidine-1-carbonyl)piperidin-1-yl)isoxazol-5-yl)-3-methylbutanoyl)-4-hydroxy-N—((S)-1-(4-(4-methylthiazol-5-yl)phenyl)ethyl)pyrrolidine-2-carboxamide]
